The values below come from patent US6506747B1, “Substituted 1-(4-aminophenyl)pyrazoles and their use as anti-inflammatory agents” (Boehringer Ingelheim Pharmaceuticals, Inc., priority 1998, dated 2003).

One data set concerns IL-2 promoter/enhancer. Kind of data set: IL-2 promoter assay (luciferase reporter in Jurkat J.1F/C6 cells). Type of data set: cell-based. The following applies: Homo sapiens; J.1F/C6 Jurkat cell line, IL-2 promoter luciferase reporter; read-out: IC50, inhibition of luciferase activity induced by ionomycin and PMA. From the text:
The IL-2 promoter assay measures transcriptional activation of a luciferase reporter gene which has been placed under control of the IL-2 promoter/enhancer. All the known regulatory features of the IL2gene are contained within a 300 bp sequence immediately upstream of the open reading frame. The region −328 to +35 relative to the transcription start site of the IL-2 gene is obtained by RT-PCR of human genomic DNA and is subcloned into the promoterless luciferase reporter vector pGL2-Basic (Promega). The resulting construct, pIL2P-luc, and a vector containing a neomycin resistance gene, pcDNA/Neo (Invitrogen), are linearized and stably transfected into Jurkat cells (a human T cell line) by electroporation. […] For screening compounds, the cells are pelleted by centrifugation, washed once with PBS, resuspended in RPMI (phenol red-free) containing 5% FBS, and dispensed into 96-well, white microtiter plates (Packard) at 50,000 cells/well. The cells are pre-incubated with compounds (1 μg/ml) for 15 min prior to addition of ionomycin (1 μg/ml) and PMA (10 ng/ml) in a final volume of 100 μl. Following a 5 hr incubation at 37° C. in a humidified incubator, 100 μl of Luc-Lite lysis buffer/luciferase assay buffer (Promega) is added and luminescence measured using a Packard TopCount scintillation counter/luminometer.
On the technique in general: In a reporter assay the amount or activity of a reporter protein is the signal.
A word on the IC50: it is the concentration that gives 50% inhibition. On to `C=CC[C@@H]1/C=C(\C)C[C@H](C)C[C@H](OC)[C@H]2O[C@@](O)(C(=O)C(=O)N3CCCC[C@H]3C(=O)O[C@H](/C(C)=C/[C@@H]3CC[C@@H](O)[C@H](OC)C3)[C@H](C)[C@@H](O)CC1=O)[C@H](C)C[C@@H]2OC` [FK506], for which the IC50 was 0.3 nM.

System in the next data set: not given
Assay: not given
Details: not given
By melting point is commonly meant the temperature of the solid-liquid transition. `CCc1cc(C(C)C)nn1-c1ccc(NCc2c(C)noc2C)cc1` [Example 1201] returned a melting point of 87 to 88 °C.
With `O=C(Nc1ccc(-n2nc(C(F)(F)F)cc2C(F)(F)F)cc1)c1cnccn1` [Example 698], the melting point was 188 to 189 °C.
As for `CN(C)Cc1cc(C(F)(F)F)n(-c2ccc(NC(=O)c3ccc(Cl)cc3)cc2)n1` [Example 1128], the melting point is 177 to 178 °C.
Take `Cc1cc(C(F)(F)F)nn1-c1ccc(NC(=O)C2CCCC2)cc1` [Example 780]: the melting point fell in the range of 176 to 178 °C.
`CCc1cc(C(F)(F)F)nn1-c1ccc(NCc2ccc(C)s2)cc1` [Example 1248] displayed a melting point of 87 to 89 °C.
Regarding `FC(F)(F)c1cc(C(F)(F)F)n(-c2ccc(Nc3nc4ccccc4[nH]3)cc2)n1` [Example 644], the melting point fell in the range of 220 to 222 °C.
`CSc1cc(-c2ccco2)nn1-c1ccc(NC(=O)c2ccc(Cl)cc2)cc1` [Example 1077]: the melting point fell in the range of 176 to 178 °C.
The compound `O=C(Nc1ccc(-n2nc(C(F)(F)F)cc2C(F)(F)F)cc1)c1cnc2ccccc2n1` [Example 712] gave a melting point of 196 °C.
Consider `FC(F)(F)c1cc(Cl)n(-c2ccc(Nc3nccc4ccccc34)cc2)n1` [Example 683], for which the melting point is 244 to 254 °C.
`O=C(Nc1ccc(-n2nc(C(F)(F)F)cc2C(F)(F)F)cc1)C1CCCNC1` (stereo not drawn) [Example 688] showed a melting point of 231 to 233 °C.
`O=C(Nc1ccc(-n2nc(C(F)(F)F)cc2C(F)(F)F)cc1)c1ccccc1` [Example 538]: the melting point was in the range of 243 to 245 °C.
`FC(F)(F)c1cc(C(F)(F)F)n(-c2ccc(Nc3nccc4ccccc34)cc2)n1` [Example 648]: the melting point was in the range of 205 to 220 °C.
With `FC(F)(F)c1cc(C(F)(F)F)n(-c2ccc(NCc3ccc(Cl)cc3)cc2)n1` [Example 548], the melting point fell in the range of 89 to 90 °C.
Compound `O=C(Nc1ccc(-n2nc(C(F)(F)F)cc2C(F)(F)F)cc1)c1ccnc2ccccc12` [Example 711] came in with a melting point of 204 to 205 °C.
The compound `CC(=O)Nc1ccc(-n2nc(C(F)(F)F)cc2C(F)(F)F)cc1` [Example 547] returned a melting point of 175 to 176 °C.
Compound `CCCCCC(=O)Nc1ccc(-n2nc(C(F)(F)F)cc2C(F)(F)F)cc1` [Example 584] showed a melting point of 107 to 109 °C.
`CCc1cc(C(C)C)nn1-c1ccc(NC(=O)c2c(C)noc2C)cc1` [Example 1200] returned a melting point of 173 to 175 °C.
Still for that read-out and setting: the result for `CCc1cc(C(F)(F)F)nn1-c1ccc(NC(=O)c2c(C)ncn2C)cc1` [Example 1207] reads 179 to 182 °C; that for `FC(F)(F)c1cc(C(F)(F)F)n(-c2ccc(Nc3ccncn3)cc2)n1` [Example 886], 218 to 219 °C; that for `C[S+]([O-])c1cc(-c2ccco2)nn1-c1ccc(NC(=O)c2ccc(Cl)cc2)cc1` (stereo not drawn) [Example 1101], 110 °C.
Take `O=C(Nc1ccc(-n2nc(C(F)(F)F)cc2C(F)(F)F)cc1)N1CCOCC1` [Example 726]: the melting point was in the range of 185 to 186 °C.
`CCNc1ccc(-n2nc(C(F)(F)F)cc2C(F)(F)F)cc1` [Example 613] gave a melting point of 54 °C.
As for `CCc1cc(C(C)C)nn1-c1ccc(NC(=O)c2cnccn2)cc1` [Example 1312], the melting point was in the range of 169 to 171 °C.
`N#Cc1ccc(Nc2ccc(-n3nc(C(F)(F)F)cc3C(F)(F)F)cc2)cc1` [Example 864]: the melting point came out at 247 °C.
For `CCc1cc(C(C)C)nn1-c1ccc(Nc2ncccc2C#N)cc1` [Example 1160], the melting point lay in the range of 123 to 124 °C.
Compound `CCc1cc(C(F)(F)F)nn1-c1ccc(NCc2sccc2C)cc1` [Example 1247] displayed a melting point of 93 to 95 °C.
